Our source for the Kd values is US20250296959A1, “B7-H3 TARGETING PEPTIDES AND CONSTRUCTS THEREOF” (Mariana Oncology Inc., priority 2024, published 2025).

The target of this assay is T1, human 4lg B7-H3 (Homo sapiens, UniProt Q5ZPR3).
T1 sequence (Q5ZPR3 29-534): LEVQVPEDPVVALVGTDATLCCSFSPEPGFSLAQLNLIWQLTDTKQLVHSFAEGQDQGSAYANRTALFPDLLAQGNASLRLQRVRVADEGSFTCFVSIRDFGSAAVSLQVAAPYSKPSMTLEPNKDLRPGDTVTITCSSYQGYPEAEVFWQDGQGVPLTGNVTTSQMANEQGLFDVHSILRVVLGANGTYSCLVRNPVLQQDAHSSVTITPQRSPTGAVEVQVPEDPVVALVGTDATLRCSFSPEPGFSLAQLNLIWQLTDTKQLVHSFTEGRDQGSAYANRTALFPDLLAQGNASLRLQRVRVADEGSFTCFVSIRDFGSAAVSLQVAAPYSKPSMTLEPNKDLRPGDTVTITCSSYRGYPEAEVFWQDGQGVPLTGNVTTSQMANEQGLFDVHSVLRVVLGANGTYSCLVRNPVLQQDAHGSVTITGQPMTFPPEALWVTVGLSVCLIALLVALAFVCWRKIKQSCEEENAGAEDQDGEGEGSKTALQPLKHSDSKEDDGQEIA
In words: Affinity determination by surface plasmon resonance (SPR) to 4Ig B7-H3. Conditions: 4Ig B7-H3. (In SPR one partner is held on a chip, and binding of the other changes the refractive index at the surface.)

Where [1] appears, read: SPR KD—37° C., 37° C. flow cell temperature.
Setting [2] is: SPR KD—25° C., 25° C. flow cell temperature.

pKd: −log10 of the molar value. Starred links: 1 amine or outer side, 2 acyl side, 3 side chain; linkers in the order of their positions; H or OH if unused. Positions of bridges follow the written chain, without caps; N, C: chain ends. Non-standard residues stand in square brackets, D forms with d. Residues, ends and D or L forms follow the SMILES beside them. Groups on a side chain read outwards from the residue. *: point of attachment. X2 = O=C(O)CN1CCN(CC(=O)O)CCN(CC(=O)NCCOCCOCCOCCOCC(=O)*)CCN(CC(=O)O)CC1; Ala(piperidin-4-yl) = O=C([C@H](CC1CCN([*:3])CC1)N[*:1])[*:2]; Phe(3-CH2NH2) = O=C([C@H](Cc1cccc(CN[*:3])c1)N[*:1])[*:2]; DOTA = O=C(O)CN1CCN(CC(=O)O)CCN(CC(=O)*)CCN(CC(=O)O)CC1; Trp(5-Cl) = N[C@@H](Cc1c[nH]c2ccc(Cl)cc12)C(=O)O; Phe(4-COOH) = N[C@@H](Cc1ccc(C(=O)O)cc1)C(=O)O; Trp(5-F) = N[C@@H](Cc1c[nH]c2ccc(F)cc12)C(=O)O; X1 = C[C@@H](c1ccccc1)[C@H](N[*:1])C(=O)[*:2]; X11 = O=C(CCCc1ccc(I)cc1)NCCOCCOCCOCCOCC(=O)*; Phe(3-F) = N[C@@H](Cc1cccc(F)c1)C(=O)O; 1Nal = N[C@@H](Cc1cccc2ccccc12)C(=O)O; Ala(4-THP) = N[C@@H](CC1CCOCC1)C(=O)O; Val(3-OH) = CC(C)(O)[C@H](N)C(=O)O; Cha = N[C@@H](CC1CCCCC1)C(=O)O; PEG4 = NCCOCCOCCOCCOCCC(=O)O; Suc = O=C(CCC(=O)[*:2])[*:1]; Tle = CC(C)(C)[C@H](N)C(=O)O; hLeu = CC(C)CC[C@H](N)C(=O)O; Nle = CCCC[C@H](N)C(=O)O; Sar = CNCC(=O)O

One may read the pKd as the Kd on a negative log10 scale, so that one unit is a factor of ten. Lower therefore signals a large Kd. With `CC(=O)NCCOCCOCCOCCOCCC(=O)N1CCC(C[C@@H]2NC(=O)[C@H](CC3CCNCC3)NC(=O)CNC(=O)[C@H](C(C)(C)C)NC(=O)[C@@H](NC(=O)[C@H](Cc3ccc(O)cc3)NC(=O)[C@H](CCC(C)C)NC(C)=O)CSSC[C@@H](C(=O)N[C@@H](Cc3c[nH]c4ccc(F)cc34)C(=O)N[C@H](C(=O)N[C@H](C(=O)N[C@H](CCCCNC(=O)CN3CCN(CC(=O)O)CCN(CC(=O)O)CCN(CC(=O)O)CC3)C(=O)O)C(C)(C)O)[C@@H](C)c3ccccc3)NC(=O)[C@H](Cc3ccc(O)cc3)NC(=O)[C@H](C(C)C)NC(=O)[C@H](CC(=O)O)NC2=O)CC1` [compound 515, Ac-hLeu-Y-C-Tbg-G-PipAla-Pip(PEG4-Ac)Ala-D-V-Y-C-5FW-[(2S, 3S)beta-Me-Phe]-hydroxyVal-dLys(DOTA)-COOH] (Ac-[hLeu]YC[Tle]G[Ala(piperidin-4-yl)][Ala(piperidin-4-yl)]([PEG4-Ac])DVYC[Trp(5-F)][X1][Val(3-OH)][dK](DOTA)-OH; disulfide 3-11), the pKd under setting [1] is above 9.00. `CC(C)CC[C@H](NC(=O)CCC(=O)O)C(=O)N[C@@H](Cc1ccc(O)cc1)C(=O)N[C@H]1CSSC[C@@H](C(=O)N[C@@H](Cc2c[nH]c3ccc(F)cc23)C(=O)N[C@@H](Cc2ccccc2)C(=O)N[C@H](C(=O)N[C@H](CCCCNC(=O)CN2CCN(CC(=O)O)CCN(CC(=O)O)CCN(CC(=O)O)CC2)C(=O)O)C(C)(C)O)NC(=O)[C@H](Cc2ccc(O)cc2)NC(=O)[C@H](C(C)C)NC(=O)[C@H](CC(=O)O)NC(=O)[C@H](CC2CCOCC2)NC(=O)[C@H](CC2CCNCC2)NC(=O)CNC(=O)[C@H](C(C)(C)C)NC1=O` [compound 451, C4diacid-hLeu-Y-C-Tbg-G-PipAla-ThpA-D-V-Y-C-5FW-F-hydroxyVal-dLys(DOTA)-COOH] (Suc-[hLeu]YC[Tle]G[Ala(piperidin-4-yl)][Ala(4-THP)]DVYC[Trp(5-F)]F[Val(3-OH)][dK](DOTA)-OH; disulfide 3-11) had a pKd under setting [1] of 8.00 to 9.00. The molecule `CC(=O)N[C@@H](CCC(C)C)C(=O)N[C@@H](Cc1ccc(O)cc1)C(=O)N[C@H]1CSSC[C@@H](C(=O)N[C@@H](Cc2c[nH]c3ccc(F)cc23)C(=O)N[C@@H](Cc2cccc(F)c2)C(=O)N[C@H](C(=O)N[C@H](CCCCNC(=O)CN2CCN(CC(=O)O)CCN(CC(=O)O)CCN(CC(=O)O)CC2)C(N)=O)[C@@H](C)O)NC(=O)[C@H](Cc2ccc(O)cc2)NC(=O)[C@H](C(C)C)NC(=O)[C@H](CC(=O)O)NC(=O)[C@H](Cc2ccc(O)cc2)NC(=O)[C@H](CCCCN)NC(=O)CNC(=O)[C@H](C(C)C)NC1=O` [compound 173, Ac-hLeu-Y-C-V-G-K-Y-D-V-Y-C-5FW-3FPhe-Thr-dLys(DOTA)-CONH2] (Ac-[hLeu]YCVGKYDVYC[Trp(5-F)][Phe(3-F)]T[dK](DOTA)-NH2; disulfide 3-11) showed a pKd under setting [2] above 9.00. `CC(=O)N[C@@H](CCC(C)C)C(=O)N[C@@H](Cc1ccc(O)cc1)C(=O)N[C@H]1CSSC[C@@H](C(=O)N[C@@H](Cc2c[nH]c3ccc(F)cc23)C(=O)N[C@@H](Cc2ccccc2)C(=O)N[C@H](C(N)=O)C(C)(C)O)NC(=O)[C@H](Cc2ccc(O)cc2)NC(=O)[C@H](C(C)C)NC(=O)[C@H](CC(=O)O)NC(=O)[C@H](CC2CCCCC2)NC(=O)[C@H](CCCCNC(=O)CN2CCN(CC(=O)O)CCN(CC(=O)O)CCN(CC(=O)O)CC2)NC(=O)CNC(=O)[C@H](C(C)C)NC1=O` [compound 201, Ac-hLeu-Y-C-V-G-Lys(DOTA)-CHA-D-V-Y-C-5FW-F-hydroxyVal-CONH2] (Ac-[hLeu]YCVGK(DOTA)[Cha]DVYC[Trp(5-F)]F[Val(3-OH)]-NH2; disulfide 3-11) showed a pKd under setting [2] of 8.00 to 9.00. Consider `CC(=O)N[C@@H](CCC(C)C)C(=O)N[C@@H](Cc1ccc(O)cc1)C(=O)N[C@H]1CSSC[C@@H](C(=O)N[C@@H](Cc2c[nH]c3ccc(F)cc23)C(=O)N[C@@H](Cc2ccccc2)C(=O)N[C@H](C(=O)N[C@H](CCCCNC(=O)CN2CCN(CC(=O)O)CCN(CC(=O)O)CCN(CC(=O)O)CC2)C(=O)O)C(C)(C)O)NC(=O)[C@H](Cc2ccc(O)cc2)NC(=O)[C@H](C(C)C)NC(=O)[C@H](CC(=O)O)NC(=O)[C@H](CC2CCOCC2)NC(=O)[C@H](CC2CCN(C(=O)COCCOCCOCCOCCNC(=O)CCCc3ccc(I)cc3)CC2)NC(=O)CNC(=O)[C@H](C(C)(C)C)NC1=O` [Cpd #364, Ac-hLeu-Y-C-Tbg-G-Pip(PEG4-AB)Ala-ThpA-D-V-Y-C-5FW-F-hydroxyVal-dLys(DOTA)-COOH] (Ac-[hLeu]YC[Tle]G[Ala(piperidin-4-yl)](X11)[Ala(4-THP)]DVYC[Trp(5-F)]F[Val(3-OH)][dK](DOTA)-OH; disulfide 3-11), for which the pKd under setting [1] is 8.00 to 9.00. The same measure, in the same setting: as for `CC(=O)N[C@@H](CCC(C)C)C(=O)N[C@@H](Cc1ccc(O)cc1)C(=O)N[C@H]1CSSC[C@@H](C(=O)N[C@@H](Cc2c[nH]c3ccc(Cl)cc23)C(=O)N[C@@H](Cc2ccccc2)C(=O)N[C@H](C(=O)N[C@H](CCCCNC(=O)CN2CCN(CC(=O)O)CCN(CC(=O)O)CCN(CC(=O)O)CC2)C(=O)O)C(C)(C)O)NC(=O)[C@H](Cc2ccc(O)cc2)NC(=O)[C@H](C(C)C)NC(=O)[C@H](CC(=O)O)NC(=O)[C@H](CC2CCOCC2)NC(=O)[C@H](CC2CCNCC2)NC(=O)CNC(=O)[C@H](C(C)(C)C)NC1=O` [compound 457, Ac-hLeu-Y-C-Tbg-G-PipAla-ThpA-D-V-Y-C-5ClW-F-hydroxyVal-dLys(DOTA)-COOH] (Ac-[hLeu]YC[Tle]G[Ala(piperidin-4-yl)][Ala(4-THP)]DVYC[Trp(5-Cl)]F[Val(3-OH)][dK](DOTA)-OH; disulfide 3-11), the figure is above 9.00. On to `CCCC[C@H](NC(C)=O)C(=O)N[C@@H](Cc1ccc(O)cc1)C(=O)N[C@H]1CSSC[C@@H](C(=O)N[C@@H](Cc2c[nH]c3ccccc23)C(=O)N[C@@H](Cc2ccccc2)C(N)=O)NC(=O)[C@H](Cc2ccc(O)cc2)NC(=O)[C@H](C(C)C)NC(=O)[C@H](CC(=O)O)NC(=O)[C@H](Cc2ccc(O)cc2)NC(=O)[C@H](CCCCN)NC(=O)CN(C)C(=O)[C@H](C(C)C)NC1=O` [compound 26, Ac-Nle-Y-C-V-Sar-K-Y-D-V-Y-C-W-F-CONH2] (Ac-[Nle]YCV[Sar]KYDVYCWF-NH2; disulfide 3-11), for which the pKd reads like this: under setting [2], 7.00 to 8.00; under setting [1], 7.00 to 8.00. For `CC(=O)N[C@@H](CCC(C)C)C(=O)N[C@@H](Cc1ccc(O)cc1)C(=O)N[C@H]1CSSC[C@@H](C(=O)N[C@@H](Cc2cccc3ccccc23)C(=O)N[C@@H](Cc2ccccc2)C(=O)N2CCC[C@H]2C(N)=O)NC(=O)[C@H](Cc2ccc(O)cc2)NC(=O)[C@H](C(C)C)NC(=O)[C@H](CC(=O)O)NC(=O)[C@H](Cc2cccc(CNC(=O)COCCOCCOCCOCCNC(=O)CN3CCN(CC(=O)O)CCN(CC(=O)O)CCN(CC(=O)O)CC3)c2)NC(=O)[C@H](CCCCN)NC(=O)CNC(=O)[C@H](C(C)(C)C)NC1=O` [compound 257, Ac-hLeu-Y-C-Tbg-G-K-MAF(PEG4-DOTA)-D-V-Y-C-1Nal-F-Pro-CONH2] (Ac-[hLeu]YC[Tle]GK[Phe(3-CH2NH2)](X2)DVYC[1Nal]FP-NH2; disulfide 3-11), under setting [2], the pKd is 8.00 to 9.00.

`CC(=O)N[C@@H](CCC(C)C)C(=O)N[C@@H](Cc1ccc(O)cc1)C(=O)N[C@H]1CSSC[C@@H](C(=O)N[C@@H](Cc2c[nH]c3ccc(F)cc23)C(=O)N[C@@H](Cc2ccccc2)C(=O)N2CCC[C@H]2C(N)=O)NC(=O)[C@H](Cc2ccc(O)cc2)NC(=O)[C@H](C(C)C)NC(=O)[C@H](CC(=O)O)NC(=O)[C@H](Cc2ccc(C(=O)O)cc2)NC(=O)[C@H](CCCCNC(=O)CN2CCN(CC(=O)O)CCN(CC(=O)O)CCN(CC(=O)O)CC2)NC(=O)CNC(=O)[C@H](C(C)C)NC1=O` [compound 289, Ac-hLeu-Y-C-V-G-Lys(DOTA)-4COOHPhe-D-V-Y-C-5FW-F-Pro-CONH2] (Ac-[hLeu]YCVGK(DOTA)[Phe(4-COOH)]DVYC[Trp(5-F)]FP-NH2; disulfide 3-11) had a pKd under setting [2] of 8.00 to 9.00.

`CCCC[C@H](NC(C)=O)C(=O)N[C@@H](Cc1ccc(O)cc1)C(=O)N[C@H]1CSSC[C@@H](C(=O)N[C@@H](Cc2c[nH]c3ccccc23)C(=O)N[C@@H](Cc2ccccc2)C(N)=O)NC(=O)[C@H](Cc2ccc(O)cc2)NC(=O)[C@H](C(C)C)NC(=O)[C@H](CC(=O)O)NC(=O)[C@H](Cc2ccc(C(=O)O)cc2)NC(=O)[C@H](CCCCN)NC(=O)CNC(=O)[C@H](C(C)C)NC1=O` [compound 24, Ac-Nle-Y-C-V-G-K-4COOHPhe-D-V-Y-C-W-F-CONH2] (Ac-[Nle]YCVGK[Phe(4-COOH)]DVYCWF-NH2; disulfide 3-11) showed a pKd under setting [1] of 7.00 to 8.00. For the molecule `CC(=O)N[C@@H](CCC(C)C)C(=O)N[C@@H](Cc1ccc(O)cc1)C(=O)N[C@H]1CSSC[C@@H](C(=O)N[C@@H](Cc2c[nH]c3ccc(F)cc23)C(=O)N[C@@H](Cc2ccccc2)C(=O)N[C@H](C(=O)N[C@H](CCCCNC(=O)CN2CCN(CC(=O)O)CCN(CC(=O)O)CCN(CC(=O)O)CC2)C(=O)O)C(C)(C)O)NC(=O)[C@H](Cc2ccc(O)cc2)NC(=O)[C@H]([C@@H](C)O)NC(=O)[C@H](CC(=O)O)NC(=O)[C@H](CC2CCOCC2)NC(=O)[C@H](CCCCN)NC(=O)CNC(=O)[C@H](C(C)(C)C)NC1=O` [compound 377, Ac-hLeu-Y-C-Tbg-G-K-ThpA-D-Thr-Y-C-5FW-F-hydroxyVal-dLys(DOTA)-COOH] (Ac-[hLeu]YC[Tle]GK[Ala(4-THP)]DTYC[Trp(5-F)]F[Val(3-OH)][dK](DOTA)-OH; disulfide 3-11), the pKd under setting [1] was 7.00 to 8.00.
